Data: ChEMBL document CHEMBL5338785, “Development of Aromatic-Linked Diamino Acid Antimicrobial Peptide Mimics with Low Hemolytic Toxicity and Excellent Activity against Methicillin-Resistant Staphylococcus aureus (MRSA)” (J Med Chem, 2023)
Converted amounts (≈) assume the structure as drawn.

What was measured:
[1] = Selectivity index, ratio of HC50 for hemolytic activity in sheep RBC to MIC for antibacterial activity against methicillin-resistant Staphylococcus aureus assessed as bacterial growth inhibition; assay type: toxicity; conditions: sheep red blood cells
[2] = test system: Staphylococcus aureus; test: Antibacterial activity against methicillin-resistant Staphylococcus aureus assessed as bacterial growth inhibition incubated for 18 hrs by CLSI protocol based Mueller-Hinton broth assay; assay type: functional; conditions: Staphylococcus aureus, read-out: MIC
[3] = test system: Stenotrophomonas maltophilia; test: Antibacterial activity against Stenotrophomonas maltophilia assessed as bacterial growth inhibition incubated for 18 hrs by CLSI protocol based Mueller-Hinton broth assay; assay type: functional; conditions: Stenotrophomonas maltophilia, read-out: MIC
[4] = test system: Escherichia coli; test: Antibacterial activity against Escherichia coli assessed as bacterial growth inhibition incubated for 18 hrs by CLSI protocol based Mueller-Hinton broth assay; assay type: functional; conditions: Escherichia coli, read-out: MIC
[5] = test system: Enterococcus faecalis; test: Antibacterial activity against Enterococcus faecalis assessed as bacterial growth inhibition incubated for 18 hrs by CLSI protocol based Mueller-Hinton broth assay; assay type: functional; conditions: Enterococcus faecalis, 18 h, read-out: MIC
[6] = Hemolytic activity in sheep RBC assessed as hemolysis incubated for 1 hr by microplate reader method; assay type: toxicity, cell-based, Ovis aries, Erythrocyte; conditions: sheep red blood cells

Row | Compound | selectivity ratio [1] | MIC [2] | MIC [3] | MIC ([4]; 18 h) | MIC [5] | HC50 at 1 h [6] | MIC [4]
1 | CCCCCCCCCCN(CCOc1ccc(OCCN(CCCCCCCCCC)C(=O)[C@@H](N)CCCCN)cc1)C(=O)[C@@H](N)CCCCN.Cl.Cl.Cl.Cl | < 0.625 | 4 µg/mL | 2 µg/mL | 4 µg/mL | 2 µg/mL | < 2.5 µg/mL | 
2 | C[C@@H](O)[C@H]1C(=O)N2C(C(=O)O)=C(S[C@@H]3CN[C@H](C(=O)N(C)C)C3)[C@H](C)[C@H]12 [MEROPENEM] |  |  |  |  |  |  | 0.062 µg/mL (≈ 0.162 µM)
3 | CCCCCCCCN(CCCOc1ccc2ccccc2c1-c1c(OCCCN(CCCCCCCC)C(=O)[C@@H](N)CCCCN)ccc2ccccc12)C(=O)[C@@H](N)CCCCN.Cl.Cl.Cl.Cl (stereo in doubt; 8o) | 25 | 4 µg/mL | 4 µg/mL | 8 µg/mL | 2 µg/mL | 100 µg/mL | 
4 | CCCCCCCCN(CCCOc1ccccc1)C(=O)[C@@H](N)CCCCN.Cl.Cl | 34 | 8 µg/mL | 16 µg/mL | 32 µg/mL | 4 µg/mL | 275 µg/mL | 
5 | CCCCCCCCCN(CCOc1ccc(OCCN(CCCCCCCCC)C(=O)[C@@H](N)CCCCN)cc1)C(=O)[C@@H](N)CCCCN.Cl.Cl.Cl.Cl | 10.5 | 2 µg/mL | 2 µg/mL | 2 µg/mL | 1 µg/mL | 21 µg/mL | 
6 | CCCCCCCCN(CCCOc1ccc2c(OCCCN(CCCCCCCC)C(=O)[C@@H](N)CCCCN)cccc2c1)C(=O)[C@@H](N)CCCN.Cl.Cl.Cl.Cl | 14 | 1 µg/mL | 1 µg/mL | 1 µg/mL | 1 µg/mL | 14 µg/mL | 
7 | CCCCCCCCN(CCCOc1ccccc1-c1ccccc1OCCCN(CCCCCCCC)C(=O)[C@@H](N)CCCCN)C(=O)[C@@H](N)CCCCN.Cl.Cl.Cl.Cl | 5 | 4 µg/mL | 2 µg/mL | 2 µg/mL | 1 µg/mL | 20 µg/mL | 
8 | CCCCCCN(CCCOc1cccc(-c2cccc(OCCCN(CCCCCC)C(=O)[C@@H](N)CCCCN)c2)c1)C(=O)[C@@H](N)CCCCN.Cl.Cl.Cl.Cl | 432 | 0.5 µg/mL | 1 µg/mL | 1 µg/mL | 0.5 µg/mL | 216 µg/mL | 
9 | CCCCCCN(CCCOc1ccc(-c2ccc(OCCCN(CCCCCC)C(=O)[C@@H](N)CCCCN)cc2)cc1)C(=O)[C@@H](N)CCCCN.Cl.Cl.Cl.Cl | 170 | 1 µg/mL | 1 µg/mL | 1 µg/mL | 1 µg/mL | 170 µg/mL | 
10 | CCCCCCCCCN(CCCCOc1ccc(OCCCCN(CCCCCCCCC)C(=O)[C@@H](N)CCCCN)cc1)C(=O)[C@@H](N)CCCCN.Cl.Cl.Cl.Cl | 6 | 2 µg/mL | 1 µg/mL | 2 µg/mL | 1 µg/mL | 12 µg/mL | 
11 | CCCCCCCN(CCOc1ccc(OCCN(CCCCCCC)C(=O)[C@@H](N)[C@@H](C)CC)cc1)C(=O)[C@@H](N)[C@@H](C)CC.Cl.Cl | 94 | 0.5 µg/mL | 2 µg/mL | 2 µg/mL | 1 µg/mL | 47 µg/mL | 
12 | CCCCCCCN(CCOc1ccc(OCCN(CCCCCCC)C(=O)[C@@H](N)CC(C)C)cc1)C(=O)[C@@H](N)CC(C)C.Cl.Cl | > 144 | < 0.25 µg/mL | 1 µg/mL | 2 µg/mL | 0.5 µg/mL | 36 µg/mL | 
13 | CCCCCCCCN(CCCOc1cc2ccccc2cc1OCCCN(CCCCCCCC)C(=O)[C@@H](N)CCCCN)C(=O)[C@@H](N)CCCCN.Cl.Cl.Cl.Cl | 68 | 1 µg/mL | 1 µg/mL | 2 µg/mL | 1 µg/mL | 68 µg/mL | 
14 | CCCCCCCN(CCCOc1ccccc1)C(=O)[C@@H](N)CCCCN.Cl.Cl | 24.2 | 32 µg/mL | 64 µg/mL | 128 µg/mL | 16 µg/mL | 773 µg/mL | 
